# Experimental data: patent US11413278B2, “Compounds and methods for promoting stress resistance” (priority 2015, dated 2022)
# Read-outs that look alike come from different tables or passages of the source.
# Tests used:
# C. elegans = C. elegans lifespan assays (liquid and plate); format: in vivo, Caenorhabditis elegans; conditions: for ILS at 60 µM / ILS at 66 µM: Caenorhabditis elegans
# [1] = system: PC12 cells expressing poly(Q)103-Htt-EGFP; assay: Poly(Q) toxicity & viability analysis (cellular model of Huntington's disease); format: cell-based, rat
# How it was run: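 Readout is CellTiter-Glo ATP content measured after 48 hrs. Cells are a PC12 line stably expressing inducible poly(Q)103-Htt-EGFP, where induction produces toxic aggregates.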
# [2] = Summary score for characterization of 38 core set hits
# How it was run: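 First, H2O2-resistance screen hits were characterized for longevity-related phenotypes, and each major one (multiplex resistance, FOXO3/NRF2 activation, mTOR down-regulation) received 2 points. Next, C. elegans lifespan extension was scored 0 to 2 from 4 to 6 trials. Finally, human-cell genotoxicity or toxicity subtracted a point.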
# LC3A/B puncta = assay: Autophagy induction analysis (LC3A/B puncta immuno-staining); format: cell-based, human; conditions: for Exp. 2, normalized change of nuclei numbers (Less cells): 20X objective, lysosomal LAMP co-staining
# How it was run: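 Read-out is LC3A/B puncta intensity per DAPI-positive nucleus, either total puncta (Exp. 1) or puncta colocalizing with LAMP2 lysosomes (Exp. 2). Cells were WI-38, exposed to compounds for 24 hrs before antibody staining overnight at 4° C and automated imaging.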
# [3] = Exp. 1, 10 μM, 10X objective, WI-38 cells
smiles,measurement,setting,value
CCc1ccccc1NC(=O)c1ccc([N+](=O)[O-])o1 [Gr-1C],ILS at 60 µM,"C. elegans; in liquid, wild type, with FuDR, 1.0 × 10^9 bacteria/ml, read-out: relative change of mean lifespan vs control, Trial 1",14.4%
same,ILS at 60 µM,"C. elegans; in liquid, wild type, with FuDR, 2.5 × 10^9 bacteria/ml, read-out: relative change of mean lifespan vs control, Trial 2",1.7%
same,ILS at 60 µM,"C. elegans; on plate, CF512 temperature-sensitive sterile animals, without FuDR, 2.0 × 10^10 bacteria/ml, read-out: relative change of mean lifespan vs control, Trial 3",14.7%
same,ILS at 66 µM,"C. elegans; Assay 2(z), 1.0 × 10^9 bacteria/ml, wild type + FuDR (2012 July), read-out: Lifespan assay in liquid",14.4%
same,ILS at 66 µM,"C. elegans; Assay 3(aa), 2.5 × 10^9 bacteria/ml, wild type + FuDR, read-out: Lifespan assay in liquid",1.7%
same,ILS at 66 µM,"C. elegans; Assay 4(ab), 2.0 × 10^10 bacteria/ml, CF512 worms, no FuDR, read-out: Lifespan assay on plates",14.7%
same,O = Life span- extending scores in worms,"C. elegans; score scale 0 to 2, 4 to 6 independent trials",1 (1 for lifespan extension observed in 2 trials)
same,M = Lifespan-extending scores in worms,C. elegans; summary score,1 (1 for lifespan extension observed in 2 trials)
same,Viability of PC12 cells upon induction of toxic poly(Q)103-Htt-EGFP aggregates,"[1]; 2.5 μM, 5 μM, 10 μM and 20 μM",consistently increased the viability
same,Assay 20: Huntington's poly-Q toxicity attenuation,"[1]; 10 uM, YES/NO",YES
same,M = Huntington's poly-Q toxicity attenuation,[1]; score,1
same,K = Huntington's poly-Q toxicity attenuation,[1]; summary score,1
same,D = Triple resistant,"[2]; 2-point score, multiplex resistance (cadmium, MMS, H2O2)",0
same,S = Sum of Negative scores,[2]; human,1
same,C = H2O2- & Cd-resistant,"[2]; score, resistance to both H2O2 and cadmium",1
same,Assay 15: Potential autophagy induction by LC3A/B puncta assays,"LC3A/B puncta; 10 uM & 20 uM, YES/NO",YES
same,"Exp. 1, induction of LC3A/B puncta (Up), total intensity normalized by total number of nuclei in the fields",LC3A/B puncta; [3],"p < 0.01; Up, 956%,"
same,"Exp. 1, normalized change of nuclei numbers (Less cells)",LC3A/B puncta; [3],"Less cells, 70%,"
same,"Exp. 2, normalized change of nuclei numbers (Less cells)","LC3A/B puncta; Exp. 2, 10 μM, WI-38 cells","Less cells, 58%,"
same,"Exp. 2, normalized change of nuclei numbers (Less cells)","LC3A/B puncta; Exp. 2, 20 μM, WI-38 cells","Less cells, 41%,"
same,H = Potential Autophagy Induction,LC3A/B puncta; score,1
same,H = Potential Autophagy Induction,LC3A/B puncta; summary score,1
